In the assay the test system is U2OS. The assay is described as follows: Cell death and apoptosis in U2OS cells exposed to cytotoxic agents (staurosporine, rotenone, antimycin A, menadione, mitoxantrone) under a krypton atmosphere, read by automated fluorescence microscopy. Format: cell-based. To be noted: cells kept in an atmosphere formed of krypton, measured after 6 and 16 hours of incubation. An excerpt:
Des essais ont été réalisés pour démontrer que le krypton présente un effet protecteur cérébral de par sa capacité à protéger la cellule du phénomène de la mort cellulaire programmée ou apoptose, qui est la conséquence ultime des neuro-intoxications telles que décrites dans le syndrome d'ischémie-reperfusion, d'addictions... […]
Les cellules ont été ensuite analysées dans un automate BD Pathway Fluorescence Microscope afin de déterminer les paramètres suivants : • apoptose cellulaire définit par GFP-H2B ou DAPI-condensation chromatine mesurable), • autophagie définit par GFP-LC3 puncta, • nécrose définit par l'exsudation de HMGB1 du noyau, • aberrations mitotiques définit par GFP-H2B et Red-Centrin, • niveau de stress ER définit par GFP-G3B puncta, • cycle cellulaire définit par l'incorporation de […] dans les cellules en phase S, ainsi que l'analyse du DNA. […]

The values below come from patent EP2608770B1, “INHALABLE GASEOUS DRUG CONTAINING KRYPTON FOR TREATING NEURO-INTOXICATION” (L'Air Liquide Société Anonyme pour l'Etude et …, priority 2010, dated 2012).

`[Kr]` [krypton]: the “capacités fonctionnelles et intégrité physiques des cellules” value is listed as “conservent leurs capacités fonctionnelles ainsi que leur intégrité physiques”. In addition, the “signes d'apoptose cellulaire” value (apoptosis defined by GFP-H2B or DAPI chromatin condensation) is given as “diminue les signes d'apoptose cellulaire”.
